Laboratory results reported in ChEMBL document CHEMBL1152186, “Design, synthesis, and evaluation of orally active inhibitors of plasminogen activator inhibitor-1 (PAI-1) production” (Bioorg Med Chem Lett, 2008).
Converted amounts (≈) assume the structure as drawn.

Tests used:
Bos taurus [1] = organism: Bos taurus; test: Inhibition of LPS-induced PAI1 production in BCAEC at 10 uM after 24 hrs relative to T-686; format: functional
[2] = Metabolic stability in dog blood after 1 hr; format: ADME, tissue-based, Canis lupus familiaris; conditions: read-out: Stability
Rattus norvegicus [3] = test: Antithrombotic activity in rat venous thrombosis model assessed as decrease in thrombus weight at 3 mg/kg, po administered for 3 days after 2 hrs last dose; format: functional; set-up: scale not given: the % may be the effect or the level left
[4] = Solubility in water; format: physicochemical
Bos taurus [5] = organism: Bos taurus; test: Inhibition of LPS-induced PAI1 production in BCAEC at 1 uM after 24 hrs relative to T-686; format: functional
Rattus norvegicus [6] = test: Toxicity in rat assessed as decrease in locomotor activity at 300 mg/kg, po; format: organism-based; set-up: dose 300 mg/kg, route oral; conditions: in vivo

remaining at 1 h [2] [%]	solubility [4] [µg/mL]	SMILES	Activity (Bos taurus [1])	Activity (Bos taurus [5])	other results
		COC(=O)C(/C(=C\c1ccccc1)C(N)=O)=C(\C)c1cc(OC)c(OC)c(OC)c1	0.3		
75		COC(=O)C(=C\c1cc(OC)c(OC)c(OC)c1)/C(=C\c1ccccc1)C(N)=O	0.7		
87	1600 (≈ 3.39 mM)	COC(=O)C(=C(/C)c1cc(OC)cc(OC)c1)/C(=C\c1ccccc1)C(=O)NCc1cccnc1		1.3	Activity (Rattus norvegicus [3]): 53%; Activity (Rattus norvegicus [6]): Toxic
89	> 4000	COC(=O)C(=C(/C)c1cc(OC)cc(OC)c1)/C(=C\c1ccccc1)C(=O)NN1CCN(C)CC1		1.5	Activity (Rattus norvegicus [3]): 50%; Activity (Rattus norvegicus [6]): Non-toxic
87	> 3000	COC(=O)C(=C(/C)c1cc(OC)cc(OC)c1)/C(=C\c1ccccc1)C(=O)Nc1ccncc1		1.8	Activity (Rattus norvegicus [3]): 58%; Activity (Rattus norvegicus [6]): Toxic
		COC(=O)C(=C(/C)c1cc(OC)cc(OC)c1)/C(=C\c1ccccc1)C(=O)N1CCN(C)CC1		0.3	
		COC(=O)C(=C(/C)c1cc(OC)cc(OC)c1)/C(=C\c1cccnc1)C(N)=O		0.8	
		COC(=O)C(=C(/C)c1cc(OC)cc(OC)c1)/C(=C\c1ccccc1)C(=O)Nc1cccc2cccnc12		0.4	
96	106 (≈ 0.258 mM)	COC(=O)C(=C(/C)c1cc(OC)c(OC)c(OC)c1)/C(=C\c1ccccc1)C(N)=O	1	1.5	
		COC(=O)C(=C/c1cc(OC)c(OC)c(OC)c1)/C(=C\c1ccccc1)C(N)=O	0.9		
		COC(=O)C(=C/c1cc(OC)c(OC)c(OC)c1)/C(C(N)=O)=C(/C)c1ccccc1	0.2		
76	> 2000	COC(=O)C(=C(/C)c1cc(OC)cc(OC)c1)/C(=C\c1ccccc1)C(=O)NCc1ccncc1		2.1	
		COC(=O)C(=C(/C)c1cc(OC)cc(OC)c1)/C(=C\c1ccccc1)C(=O)Nc1nnn[nH]1		0.1	
		COC(=O)C(=C/c1cc(OC)c(OC)c(OC)c1)/C(C(N)=O)=C(\C)c1ccccc1	0.3		
		COC(=O)C(=C(/C)c1cc(OC)cc(OC)c1)/C(=C\c1ccccc1)C(=O)NN1CC[N+](C)([O-])CC1		0.2	
		COC(=O)C(=C(/C)c1cc(OC)cc(OC)c1)/C(=C\c1ccccc1)C(=O)Nc1ncccn1		0.1	
83	> 2000	COC(=O)C(=C(/C)c1cc(OC)cc(OC)c1)/C(=C\c1ccccc1)C(=O)Nc1cccnc1		2.2	
		COC(=O)C(=C(/C)c1cc(OC)cc(OC)c1)/C(=C\c1ccccc1)C(=O)NC1CCN(C)CC1		0.8	
		COC(=O)C(=C/c1cc(OC)c(OC)c(OC)c1)/C(=C/c1ccccc1)C(N)=O	0.7		
79	9 (≈ 0.0246 mM)	COc1cc(/C=C2/C(=O)NC(=O)/C2=C/c2ccccc2)cc(OC)c1OC	1	1	
		COC(=O)C(=C(/C)c1cc(OC)cc(OC)c1)/C(=C\c1ccccc1)C(=O)O		0.4	
		COC(=O)C(=C(/C)c1cc(OC)cc(OC)c1)/C(=C\c1ccccc1)C(=O)Nn1cnnc1		0.6	
88	> 4000	COC(=O)C(=C(/C)c1cc(OC)cc(OC)c1)/C(=C\c1ccncc1)C(N)=O		1.5	
